{"source": "the supplement of paper PMC10307832", "test_in_all_cases": "relative viability (nuclei count vs DMSO), 5 days (fraction); higher = more cells survive", "key": {"Nilotinib": {"compound": "Cc1cn(-c2cc(NC(=O)c3ccc(C)c(Nc4nccc(-c5cccnc5)n4)c3)cc(C(F)(F)F)c2)cn1 [Nilotinib]", "method_in_brief": "(§1)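 Lung cancer cell lines in 1536-well plates were exposed by pinning to five library-drug doses (not always all listed) √10 apart, following an overnight hold at 37 °C. MetaXpress counted Hoechst-stained nuclei from 4× images taken after 5 days without medium change. Viability is the median ratio of treated-well to vehicle-well nuclei across plates. Plates required control CV below 25% and at least one doubling.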"}, "MIM1": {"compound": "CC1=CSC(=NC2CCCCC2)N1/N=C/C3=C(C(=C(C=C3)O)O)O [MIM1]", "method_in_brief": "as §1"}, "Lenalidomide": {"compound": "Nc1cccc2c1CN(C1CCC(=O)NC1=O)C2=O [Lenalidomide]", "method_in_brief": "as §1"}, "Saracatinib": {"compound": "CN1CCN(CCOc2cc(OC3CCOCC3)c3c(Nc4c(Cl)ccc5c4OCO5)ncnc3c2)CC1 [Saracatinib]", "method_in_brief": "as §1"}, "Luminespib": {"compound": "CCNC(=O)c1noc(-c2cc(C(C)C)c(O)cc2O)c1-c1ccc(CN2CCOCC2)cc1 [Luminespib]", "method_in_brief": "as §1"}}}
{"cell line": "SW 900", "values": [{"measurement": "relative viability", "setting": "Nilotinib; 0.001 µM", "value": 0.748}, {"measurement": "relative viability", "setting": "Nilotinib; 0.003162 µM", "value": 0.939}, {"measurement": "relative viability", "setting": "Nilotinib; 0.01 µM", "value": 1.07}, {"measurement": "relative viability", "setting": "Nilotinib; 0.03162 µM", "value": 0.639}, {"measurement": "relative viability", "setting": "Nilotinib; 0.1 µM", "value": 0.611}, {"measurement": "relative viability", "setting": "MIM1; 0.2 µM", "value": 0.915}, {"measurement": "relative viability", "setting": "MIM1; 0.6325 µM", "value": 0.947}, {"measurement": "relative viability", "setting": "MIM1; 2 µM", "value": 0.782}, {"measurement": "relative viability", "setting": "MIM1; 6.325 µM", "value": 0.502}, {"measurement": "relative viability", "setting": "MIM1; 20 µM", "value": 0.158}, {"measurement": "relative viability", "setting": "Lenalidomide; 0.253 µM", "value": 0.809}, {"measurement": "relative viability", "setting": "Lenalidomide; 2.53 µM", "value": 1.03}, {"measurement": "relative viability", "setting": "Lenalidomide; 8 µM", "value": 0.598}, {"measurement": "relative viability", "setting": "Saracatinib; 0.02 µM", "value": 0.97}, {"measurement": "relative viability", "setting": "Saracatinib; 0.2 µM", "value": 0.658}, {"measurement": "relative viability", "setting": "Saracatinib; 0.6325 µM", "value": 0.878}, {"measurement": "relative viability", "setting": "Saracatinib; 2 µM", "value": 0.694}, {"measurement": "relative viability", "setting": "Luminespib; 0.002 µM", "value": 0.945}, {"measurement": "relative viability", "setting": "Luminespib; 0.006325 µM", "value": 0.732}, {"measurement": "relative viability", "setting": "Luminespib; 0.01 µM, anchor plate", "value": 0.18}, {"measurement": "relative viability", "setting": "Luminespib; 0.02 µM", "value": 0.474}, {"measurement": "relative viability", "setting": "Luminespib; 0.06325 µM", "value": 0.138}, {"measurement": "relative viability", "setting": "Luminespib; 0.2 µM", "value": 0.132}]}
{"cell line": "SW 1573", "values": [{"measurement": "relative viability", "setting": "Nilotinib; 0.001 µM", "value": 0.906}, {"measurement": "relative viability", "setting": "Nilotinib; 0.003162 µM", "value": 1.2}, {"measurement": "relative viability", "setting": "Nilotinib; 0.01 µM", "value": 1.12}, {"measurement": "relative viability", "setting": "Nilotinib; 0.03162 µM", "value": 0.737}, {"measurement": "relative viability", "setting": "Nilotinib; 0.1 µM", "value": 0.66}, {"measurement": "relative viability", "setting": "MIM1; 0.2 µM", "value": 1.1}, {"measurement": "relative viability", "setting": "MIM1; 0.6325 µM", "value": 0.966}, {"measurement": "relative viability", "setting": "MIM1; 2 µM", "value": 0.976}, {"measurement": "relative viability", "setting": "MIM1; 6.325 µM", "value": 0.763}, {"measurement": "relative viability", "setting": "MIM1; 20 µM", "value": 0.488}, {"measurement": "relative viability", "setting": "Lenalidomide; 0.253 µM", "value": 0.914}, {"measurement": "relative viability", "setting": "Lenalidomide; 0.8 µM", "value": 1.01}, {"measurement": "relative viability", "setting": "Lenalidomide; 2.53 µM", "value": 1.08}, {"measurement": "relative viability", "setting": "Lenalidomide; 8 µM", "value": 0.925}, {"measurement": "relative viability", "setting": "Saracatinib; 0.02 µM", "value": 0.931}, {"measurement": "relative viability", "setting": "Saracatinib; 0.2 µM", "value": 0.785}, {"measurement": "relative viability", "setting": "Saracatinib; 0.6325 µM", "value": 0.877}, {"measurement": "relative viability", "setting": "Saracatinib; 2 µM", "value": 0.729}, {"measurement": "relative viability", "setting": "Luminespib; 0.002 µM", "value": 1.04}, {"measurement": "relative viability", "setting": "Luminespib; 0.006325 µM", "value": 0.976}, {"measurement": "relative viability", "setting": "Luminespib; 0.01 µM, anchor plate", "value": 0.217}, {"measurement": "relative viability", "setting": "Luminespib; 0.02 µM", "value": 0.595}, {"measurement": "relative viability", "setting": "Luminespib; 0.06325 µM", "value": 0.108}, {"measurement": "relative viability", "setting": "Luminespib; 0.2 µM", "value": 0.107}]}
{"cell line": "UMC-11", "values": [{"measurement": "relative viability", "setting": "Nilotinib; 0.001 µM", "value": 0.934}, {"measurement": "relative viability", "setting": "Nilotinib; 0.003162 µM", "value": 1.09}, {"measurement": "relative viability", "setting": "Nilotinib; 0.01 µM", "value": 1.15}, {"measurement": "relative viability", "setting": "Nilotinib; 0.03162 µM", "value": 0.686}, {"measurement": "relative viability", "setting": "Nilotinib; 0.1 µM", "value": 0.863}, {"measurement": "relative viability", "setting": "MIM1; 0.2 µM", "value": 0.962}, {"measurement": "relative viability", "setting": "MIM1; 0.6325 µM", "value": 0.725}, {"measurement": "relative viability", "setting": "MIM1; 2 µM", "value": 1.08}, {"measurement": "relative viability", "setting": "MIM1; 6.325 µM", "value": 0.747}, {"measurement": "relative viability", "setting": "MIM1; 20 µM", "value": 0.284}, {"measurement": "relative viability", "setting": "Lenalidomide; 0.253 µM", "value": 0.999}, {"measurement": "relative viability", "setting": "Lenalidomide; 0.8 µM", "value": 0.846}, {"measurement": "relative viability", "setting": "Lenalidomide; 2.53 µM", "value": 1.09}, {"measurement": "relative viability", "setting": "Lenalidomide; 8 µM", "value": 0.778}, {"measurement": "relative viability", "setting": "Saracatinib; 0.02 µM", "value": 0.971}, {"measurement": "relative viability", "setting": "Saracatinib; 0.2 µM", "value": 0.729}, {"measurement": "relative viability", "setting": "Saracatinib; 0.6325 µM", "value": 1.02}, {"measurement": "relative viability", "setting": "Saracatinib; 2 µM", "value": 0.807}, {"measurement": "relative viability", "setting": "Luminespib; 0.002 µM", "value": 0.962}, {"measurement": "relative viability", "setting": "Luminespib; 0.006325 µM", "value": 0.976}, {"measurement": "relative viability", "setting": "Luminespib; 0.01 µM, anchor plate", "value": 1.03}, {"measurement": "relative viability", "setting": "Luminespib; 0.02 µM", "value": 0.471}, {"measurement": "relative viability", "setting": "Luminespib; 0.06325 µM", "value": 0.587}, {"measurement": "relative viability", "setting": "Luminespib; 0.2 µM", "value": 0.221}]}
